A short description of data set [1]: Reaction of excipient and pseudoephedrine with lithium in liquid ammonia, methamphetamine quantified. As to conditions: for Relative percentage of methamphetamine formation, Li—NH3 Reduction: excipient 1.0 mmol + pseudoephedrine 1.0 mmol, pseudoephedrine only = 100.
A short description of data set [2]: Reaction of excipient and pseudoephedrine with red phosphorous and hydriodic acid, methamphetamine quantified. As to conditions: excipient 1.0 mmol + pseudoephedrine 1.0 mmol, 57% aqueous hydriodic acid, 90-100° C.; pseudoephedrine only = 100.
The conditions of data set [3]: species and route not given; cited from earlier work.

A value given as a limit tells only on which side of the number the result lay.

Regarding `Cc1cnc(C)c(C)n1` [2,3,5-Trimethylpyrazine], in data set [1], the “Relative percentage of methamphetamine formation, Li—NH3 Reduction” value (“Relative percentage … Li—NH3 Reduction” below) worked out at 8%. In addition, the “Relative percentage of methamphetamine formation, P—HI Reduction” value (“Relative percentage … P—HI Reduction” for short) in data set [2] was determined as 20%.

`CC(=O)c1nccs1` [2-Acetylthiazole]: the “Relative percentage … Li—NH3 Reduction” value in data set [1] is listed as less than 1%.

For `CCOc1cnc(C)cn1` [2-Ethoxy-5-methylpyrazine], in data set [1], the “Relative percentage … Li—NH3 Reduction” value was 7%. Also, the “Relative percentage … P—HI Reduction” value in data set [2] was found to be 15%.

On to `CCOc1cncc(C)n1` [2-Ethoxy-6-methylpyrazine], for which, in data set [1], the “Relative percentage … Li—NH3 Reduction” value came out at 4%. Also, in data set [2], the “Relative percentage … P—HI Reduction” value worked out at 13%.

As for `COc1nccnc1CC(C)C` [2-Isobutyl-3-methoxypyrazine], the “Relative percentage … Li—NH3 Reduction” value in data set [1] is on record as 2%. In data set [2], the “Relative percentage … P—HI Reduction” value is 27%.

`COc1nccnc1C` [2-Methoxy-3-methylpyrazine]: the “Relative percentage … Li—NH3 Reduction” value in data set [1] is less than 1%. Further, the “Relative percentage … P—HI Reduction” value in data set [2] is listed as 2.0%.

Usually LD50 stands for the dose at which mortality reaches 50%. Take `CC(=O)c1cnccn1` [Acetylpyrazine]: the LD50 in data set [3] is more than 4000 mg/kg. Besides, the “Relative percentage … Li—NH3 Reduction” value in data set [1] was <<1%. The “Inhibiting the conversion of pseudoephedrine to methamphetamine (in words)” value in data set [1] (summary of Table 1, both Li—NH3 and P—HI reductions) is “most effective among all of the pyrazine derivatives tested”. Further, in data set [2], the “Relative percentage … P—HI Reduction” value is on record as 6%.

For the molecule `CC(C)COC(=O)c1ccccc1N` [Isobutyl anthranilate], the “Relative percentage … Li—NH3 Reduction” value in data set [1] is less than 1%. In data set [2], the “Relative percentage … P—HI Reduction” value is listed as 2.3%.

(Values after US20160089439A1, “Prevention of Illicit Manufacutre of Methamphetamine from Pseudoephedrine Using Food Flavor Excipients” (Satara Pharmaceuticals, LLC, priority 2014, published 2016).)
